In paper PMC8171112 (Bioorganic & medicinal chemistry, 2021):
Values belong to the compound of their own block, whether it stands above or below them.

Tests used:
TET1 [1] = conditions: read-out: IC50 TET1; cited from earlier work
[2] = test system: TET enzyme (5hmC/5mC) in THP1 cells; format: cell-based; conditions: prodrug esters, three concentrations, 12 h
TET1 [3] = conditions: 10 mM, 0.1 mM α-KG; cited from earlier work
TET2 [4] = conditions: 10 mM, 0.1 mM α-KG; cited from earlier work
[5] = biological target: catalytic domain of TET2 (TET2CD) (Homo sapiens, UniProt Q6N021); experiment: ELISA of 5hmC for TET2 activity, cell free; format: biochemical; conditions: for potency relative to NOG: cell free ELISA, more potent than NOG (Figure 1)
TET2CD = TET2CD (Homo sapiens, UniProt Q6N021); experiment: LC-MS/MS analysis to probe TET2CD modification; conditions: TET2CD 10 μM, 2a 100 μM, 2 h, trypsin and chymotrypsin digestion
[6] = test system: 16 other α-KG/Fe(II) dependent enzymes; conditions: cited from earlier work
TET2 [7] = conditions: read-out: IC50 TET2; Figure 3 insert; cited from earlier work
wild type (WT)-TET2 = conditions: cited from earlier work

SMILES: Nc1nc(=O)n(-c2cccc(-c3ccccc3)c2)cc1Cl [Bobcat 339]
IC50 (TET1 [1]): 33 µM

SMILES: C=C(CC(Cl)C(=O)OC)C(=O)OC (centres unmarked) [compound 9, Dimethyl 2-chloro-4-methylenepentanedioate]
TET inhibition in THP1 cells, dot blot [2]: good activity consistent with 1a

SMILES: COC(=O)C(=O)CC(C)C(=O)OC (centres unmarked) [21a]
TET inhibition in THP1 cells, dot blot [2]: no inhibition

SMILES: COC(=O)CCC(=O)C(=O)OC [DMKG, dimethyl-2-ketoglutarate, reference compound]
TET inhibition in THP1 cells, dot blot [2]: no inhibition

SMILES: O=C(O)CC[C@H](O)C(=O)O [S-2-HG]
inhibition of TET1 activity (TET1 [3]): inhibiting most of TET1 and TET2 activity
inhibition of TET2 activity (TET2 [4]): inhibiting most of TET1 and TET2 activity

potency relative to NOG [5]: approximately 2 fold
SMILES: C=C(CC(O)C(=O)O)C(=O)O (centres unmarked) [2a, 2-Hydroxy-4-methylenepentanedioic acid]
covalent modification of +160 Da of TET2CD peptides (TET2CD): did not observed covalent modification of +160 Da of any peptide
inhibition of 16 other α-KG/Fe(II) dependent enzymes [6]: does not inhibit
IC50 (TET2 [7]): 9.4 µM

SMILES: O=C(O)CCC(=O)C(=O)O [α-KG, α-ketoglutarate, reference compound]
EC50 ([5]; read-out: EC50, TET2CD dioxygenase activity response to α-KG, ELISA, Figure 5A): 3.5 µM

potency relative to NOG [5]: approximately 2 fold
SMILES: C=C(C[C@H](O)C(=O)O)C(=O)O [16S, (S)-2-Hydroxy-4-methylenepentanedioic acid]

SMILES: CC(C)CC(NC(=O)C(=O)O)C(=O)O (centres unmarked) [NOG-5]
effect on wild type (WT)-TET2 (wild type (WT)-TET2): no effect

potency relative to NOG [5]: approximately 2 fold
SMILES: C=C(C[C@@H](O)C(=O)O)C(=O)O [16R, (R)-2-Hydroxy-4-methylenepentanedioic acid]
